Data: patent US9751842B2, “Phthalazine derivatives” (Merck Patent GmbH, priority 2013, dated 2017)

Legend:
[1] = biological target: T1, GST-tagged Tankyrase-1 (1023-1327 aa) (Homo sapiens, UniProt O95271); assay: Tankyrase 1 autoparsylation HTRF enzyme assay; format: biochemical; conditions: HTRF autoparsylation, 90 min at 30° C; read-out: IC50 TNKS1 enzyme assay
T1 construct: GST-tagged Tankyrase-1 (1023-1327 aa)
Method: (§1) Biochemical Activity Testing of Tankyrase 1 and 2: Autoparsylation Assay
(§2) The autoparsylation assay is run in two steps: the enzymatic reaction in which GST-tagged Tankyrase-1, resp Tankyrase-2 transferred biotinylated ADP-ribose to itself from biotinylated NAD as co-substrate and the detection reaction where a time resolved FRET between cryptate labelled anti-GST bound to the GST tag of the enzyme and Xlent® labelled-streptavidin bound the biotin-parsylation residue is analysed. The autoparsylation activity was detectable directly via the increase in HTRF signal.
(§3) The autoparsylation assay is performed as 384-well HTRF® (Cisbio, Codolet, France) assay format in Greiner low volume nb 384-well microtiter plates and is used for high throughput screen. 250 nM GST-tagged Tankyrase-1 (1023-1327 aa), respectively about 250 nM GST-tagged Tankyrase-2 (873-1166 aa) and 5 μM bio-NAD (Biolog, Life science Inst., Bremen, Germany) as co-substrate are incubated in a total volume of 5 μl (50 mM HEPES, 4 mM Mg-chloride, 0.05% Pluronic F-68, 1.4 mM DTT, 0.5% DMSO, pH 7.7) in the absence or presence of the test compound (10 dilution concentrations) for 90 min at 30° C. The reaction is stopped by the addition of 1 μl 50 mM EDTA solution. 2 μl of the detection solution (1.6 μM SA-Xlent® (Cisbio, Codolet, France), 7.4 nM Anti-GST-K® (Eu-labelled anti-GST, Cisbio, Codolet, France) in 50 mM HEPES, 800 mM KF, 0.1° A. BSA, 20 mM EDTA, 0.1% CHAPS, pH 7.0) are added. After 1 h incubation at room temperature the HTRF is measured with an Envision multimode reader (Perkin Elmer LAS Germany GmbH) at excitation wavelength 340 nm (laser mode) and emission wavelengths 615 nm and 665 nm. The ratio of the emission signals is determined. The full value used is the inhibitor-free reaction. The pharmacological zero value used is XAV-939 (Tocris) in a final concentration of 5 μM. The inhibitory values (IC50) are determined using either the program Symyx Assay Explorer® or Condosseo® from GeneData.

[2] = biological target: T2, GST-tagged Tankyrase-2 (873-1166 aa) (Homo sapiens, UniProt Q9H2K2); assay: Tankyrase 2 autoparsylation HTRF enzyme assay; format: biochemical; conditions: HTRF autoparsylation, 90 min at 30° C; read-out: IC50 TNKS2 enzyme assay
T2 construct: GST-tagged Tankyrase-2 (873-1166 aa)
Method: as §1, §2, §3

[3] = test system: Tankyrase (Axin2 level in DLD1 cells); assay: Cellular inhibition of Tankyrase, Axin2 Luminex assay in DLD1 cells; format: cell-based; conditions: Homo sapiens, DLD-1, 24 hours, Axin2 level increase, read-out: IC50 Cell assay
Method: Measurement of Cellular Inhibition of Tankyrase
Since Tankyrases have been described to modulate cellular level of Axin2 (Huang et al., 2009; Nature) the increase of Axin2 level is used as read-out for determination of cellular inhibition of Tankyrases in a Luminex based assay.
Cells of the colon carcinoma cell line DLD1 are plated in 96 well plates with 1.5×10^4 cells per well. Next day, cells are treated with a serial dilution of test compound in seven steps as triplicates with a final DMSO concentration of 0.3%. After 24 hours, cells are lysed in lysis buffer (20 mM Tris/HCl pH 8.0, 150 mM NaCl, 1% NP40, 10% Glycerol) and lysates are cleared by centrifugation through a 96 well filter plate (0.65 μm). Axin2 protein is isolated from cell lysates by incubation with a monoclonal anti-Axin2 antibody (R&D Systems #MAB6078) that is bound to fluorescent carboxybeads. Then, bound Axin2 is specifically detected with a polyclonal anti-Axin2 antibody (Cell Signaling #2151) and an appropriate PE-fluorescent secondary antibody. The amount of isolated Axin2 protein is determined in a Luminex^200 machine (Luminex Corporation) according to the manufacturer's instruction by counting 100 events per well. Inhibition of Tankyrase by test compounds results in higher levels of Axin2 which directly correlates with an increase of detectable fluorescence. As controls cells are treated with solvent alone (neutral control) and with a Tankyrase reference inhibitor IWR-2 (3E-06 M) which refers as control for maximum increase of Axin2. For analysis, the obtained data are normalized against the untreated solvent control and fitted for determination of the EC50 values using the Assay Explorer software (Accelrys).

[4] = biological target: T3, GST-tagged Tnks-1 (1023-1327 aa) (Homo sapiens, UniProt O95271); assay: TNKS1 activity ELISA (autoparsylation); format: biochemical; conditions: activity ELISA, 1 hour at 30° C; read-out: IC50 TNKS1 ELISA
T3 construct: GST-tagged Tnks-1 (1023-1327 aa, prepared in-house); made in house
Method: (§4) Description of the TNKS1 and TNKS2 ELISA Assay
(§5) Biochemical Activity Testing of TNKS 1 and 2: Activity ELISA (Autoparsylation Assay)
(§6) For analysis of autoparsylation activity of TNKS 1 and 2 an activity ELISA is performed: In the first step GST tagged TNKS is captured on a Glutathione coated plate. Then the activity assay with biotinylated NAD is performed in the absence/presence of the compounds. During the enzymatic reaction GST tagged TNKS transfers biotinylated ADP-ribose to itself from biotinylated NAD as co-substrate. For the detection streptavidin-HRP conjugate is added that binds to the biotinylated TNKS and is thereby captured to the plates. The amount of biotinylated resp. autoparsylated TNKS is detected with a luminescence substrate for HRP. The level of the luminescence signal correlates directly with the amount of autoparsylated TNKS and therefore with activity of TNKS.
(§7) The activity ELISA is performed in 384 well Glutathione coated microtiter plates (Express capture Glutathione coated plate, Biocat, Heidelberg, Germany). The plates are pre-equilibrated with PBS. Then the plates are incubated with 50 μl 20 ng/well GST-tagged Tnks-1 (1023-1327 aa, prepared in-house), respectively GST-tagged Tnks-2 (873-1166 aa, prepared in-house) in assay buffer (50 mM HEPES, 4 mM Mg-chloride, 0.05% Pluronic F-68, 2 mM DTT, pH 7.7) overnight at 4° C. The plates are washed 3 times with PBS-Tween-20. The wells are blocked by incubation at room temperature for 20 minutes with 50 μl blocking buffer (PBS, 0.05% Tween-20, 0.5% BSA). Afterwards the plates are washed 3 times with PBS-Tween-20. The enzymatic reaction is performed in 50 μl reaction solution (50 mM HEPES, 4 mM Mg-chloride, 0.05% Pluronic F-68, 1.4 mM DTT, 0.5% DMSO, pH 7.7) with 10 μM bio-NAD (Biolog, Life science Inst., Bremen, Germany) as co-substrate in the absence or presence of the test compound (10 dilution concentrations) for 1 hour at 30° C. The reaction is stopped by 3 times washing with PBS-Tween-20. For the detection 50 μl of 20 ng/μl Streptavidin, HRP conjugate (MoBiTec, Göttingen, Germany) in PBS/0.05% Tween-20/0.01% BSA are added and the plates are incubated for 30 minutes at room temperature. After three times washing with PBS-Tween-20 50 μl of SuperSignal ELISA Femto Maximum sensitivity substrate solution (ThermoFisherScientific (Pierce), Bonn, Germany) are added. Following a 1 minute incubation at room temperature luminescence signals are measured with an Envision multimode reader (Perkin Elmer LAS Germany GmbH) at 700 nm. The full value used is the inhibitor-free reaction. The pharmacological zero value used is XAV-939 (Tocris) in a final concentration of 5 μM. The inhibitory values (IC50) are determined using either the program Symyx Assay Explorer® or Condosseo® from GeneData.

[5] = biological target: T4, GST-tagged Tnks-2 (873-1166 aa) (Homo sapiens, UniProt Q9H2K2); assay: TNKS2 activity ELISA (autoparsylation); format: biochemical; conditions: activity ELISA, 1 hour at 30° C; read-out: IC50 TNKS2 ELISA
T4 construct: GST-tagged Tnks-2 (873-1166 aa, prepared in-house); made in house
Method: as §4, §5, §6, §7

DLD-1-cancer cells = conditions: Huang et al., 2009, Nature; cited from earlier work
β-catenin = conditions: Huang et al., 2009, Nature; by increasing AXIN1 and AXIN2 levels; cited from earlier work

T2 sequence (Q9H2K2 873-1166): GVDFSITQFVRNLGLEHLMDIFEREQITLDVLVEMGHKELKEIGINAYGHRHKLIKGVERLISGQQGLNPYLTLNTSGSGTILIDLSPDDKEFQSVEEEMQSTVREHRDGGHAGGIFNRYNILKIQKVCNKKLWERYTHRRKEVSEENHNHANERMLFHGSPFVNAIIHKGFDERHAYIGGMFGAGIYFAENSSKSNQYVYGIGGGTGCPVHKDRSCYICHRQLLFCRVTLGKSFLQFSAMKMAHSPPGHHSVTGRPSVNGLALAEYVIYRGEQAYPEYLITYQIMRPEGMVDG
T4 sequence (Q9H2K2 873-1166): as above
T1 sequence (O95271 1023-1327): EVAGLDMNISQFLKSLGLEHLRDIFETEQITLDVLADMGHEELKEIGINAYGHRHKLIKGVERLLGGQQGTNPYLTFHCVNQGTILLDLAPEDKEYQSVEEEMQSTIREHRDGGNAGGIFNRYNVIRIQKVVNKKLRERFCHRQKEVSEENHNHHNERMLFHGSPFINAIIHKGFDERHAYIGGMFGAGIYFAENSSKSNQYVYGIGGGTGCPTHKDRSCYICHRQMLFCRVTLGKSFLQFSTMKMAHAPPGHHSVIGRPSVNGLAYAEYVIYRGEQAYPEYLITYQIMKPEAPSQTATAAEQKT
T3 sequence (O95271 1023-1327): as above

Structure (SMILES) | IC50 [1] | IC50 [2] | IC50 [3] | IC50 [4] | IC50 [5] | growth of DLD-1-cancer cells (DLD-1-cancer cells) | Wnt-stimulated accumulation of β-catenin (β-catenin)
O=C(CCc1cccc(Cl)c1Cl)Nc1nncc2ccccc12 [Compound A17, 3-(2,3-dichloro-phenyl)-N-phthalazin-1-yl-propionamide] | < 300 nM | 300 to 3000 nM | 3000 to 50000 nM | < 300 nM | < 300 nM | – | –
Oc1nc(-c2ccc(C(F)(F)F)cc2)nc2c1CSCC2 [XAV939] | – | – | – | – | – | inhibits growth | blocked
